Tests used:
[1] = Blood markers (Vetscan) in a separate cohort of old mice; format: in vivo, female C57/BL6 mice; details: ~19 mo females, before 4th round, Compound 2 10 mg/kg, Compound 3 25 mg/kg, versus vehicle
Protocol: Blood was collected prior to each round of injection for physiological assessments. Mice were allowed to rest 4 weeks prior to being culled and organs collected for freezing in OCT, paraffin embedding and snap-freezing for RNA extraction.
For analysis of immune cell composition in whole blood, tail-vein blood was collected 2 days after last treatment. Whole blood was diluted in saline to a volume of […] and ran on a Sysmex XE2100 automated cell counter. Blood glucose levels were determined by collecting whole-blood from tail vein into heparinised tubes (Abraxis), 120-140 μL of whole-blood to be loaded onto a comprehensive diagnostic profile reagent rotor (Abraxis) and run on a VetScan VS2 Chemistry Analyzer (Abraxis: 500-7123).
Further experiments were performed on a separate cohort of old mice. […] This regimen was repeated 4 more times and blood was collected for Vetscan measurements prior to the 4th round of treatment (FIG. 19). At that stage, ~19 mo females presented elevated levels of ALT, amylase and glucose in blood when compared with young mice (FIG. 20A).

[2] = tested on: senescent preneoplastic hepatocytes; test: Model of liver cancer initiation (Nras G12V by hydrodynamic tail vein injection); format: in vivo, C57BL/6J mice; details: 25 mg/kg i.p. daily for 4 days from day 5 after HDTVI; FIGS. 16C-E
Protocol: All mice were purchased from Charles River UK, Ltd. For Hydrodynamic tail vein injection (HDTVI) experiments female C57BL/6J mice aged 5-6 weeks were given 20 μg of Nras^G12V & gaussia luciferase (Gluc) expressing plasmid and 5 μg of SB13 transposase-expressing plasmid. Plasmids were prepared using GeneElute HP Endotoxin-free Plasmid Maxiprep kit (Sigma). Purified plasmids were diluted in sterile-filtered PBS to a total volume of 10% mouse body weight and injected into mouse lateral tail vein within a 10 s window. 4 days after HDTVI, mice were bled to assess presence of gaussia luciferase signal in the blood serum and used to randomize/equalize groupings for vehicle and drug treated groups. […]
Immunohistochemical staining—Slides were deparaffinised by washing slides twice in Histoclear™ for 5 min each, followed by 5 min washes in decreasing concentrations of ethanol with 100%, 75%, 50% & 25% ethanol washes before a final wash 5 min in dH2O. […] Signal development was stopped when visible positive cells could be detected on a microscope, by washing slides in dH2O. […]
Slide image acquisition & analysis—Slides were acquired using a 20× brightfield objective on a Zeiss Axio Scan Z.1 slide scanner and analysis performed using QuPath version 0.2.0-m9 using in built positive cell detection tool to segment Haematoxylin stained nuclei and quantify mean intensity of DAB. […]

[3] = tested on: HCT116 colon cancer cells; test: Senolytic survival assay, chemotherapy-induced senescence in cancer cells; format: cell-based, human; details: second experiment: doxorubicin 100 nM, etoposide 2 μM or cisplatin 100 μM, or DMSO; replenished after 72 h, 48 h more; FIGS. 7A-C
Protocol: IMR90 cells were used to generate inducible ER:RAS (hereinafter iRAS) cells to model Oncogene induced senescence (OIS), through retroviral infection of pLNC-ER:RAS-neo into IMR90 cells followed by selection with Neomycin. IMR90 cells containing the pLNC-ER:RAS plasmid backbone pLXSN were infected in parallel to assess leakiness in the pLNC-ER:RAS system. Treatment with 100 nM 4OHT (Sigma, in DMSO) was used to induce IMR90 ER:RAS cells to undergo oncogene induced senescence (OIS). Therapy induced senescence (TIS) was induced in IMR90 cells by treatment with 33 μM (50 ug/ml) bleomycin sulphate (Generon, HY-17565) for 24 hours, 20 μM palbociclib (Selleckchem, S1116) for 7 days or 100 nM doxorubicin (Cayman chemical, 15007) for 7 days. Senescence was induced in SK-HEP-1 cells by treatment with 2 μM etoposide (Sigma-Aldrich, E1383) for 7 days (FIGS. 4A-C). HCT-116 senescence was induced by 250 nM treatment with doxorubicin (Cayman chemical, 15007) for 48 hours followed by 5 days culture in media without chemotherapy (FIG. 5), or by treatment with 100 nM doxorubicin, 2 μM etoposide or 100 μM cisplatin for 3 days followed by 4 days culture in media without chemotherapy (FIGS. 6A-7C). Senescence was induced in MCF7 by 200 nM treatment with doxorubicin for 7 days, 2 μM etoposide for 7 days or 10 μM cisplatin for 7 days (FIGS. 8A-9C).
High-throughput microscopy survival assay—To assess senolytic effect of drugs, cells were cultured for 7 days, culture media was changed to DM0.5 media and drugs in DMSO were added (<5% v/v final concentration), drugs were replenished after 3 days if assay length was longer than 72 h. Wells were fixed in 4% PFA for 1 hour at day 10 to 14, washed 3 times with PBS and then stained with 1 μg/mL DAPI (w/v, PBS) for 10 minutes. Wells were then washed 3 times with PBS. Optionally plates could be stored at 4° C. for up to 2 weeks and DAPI stained. Image acquisition of DAPI stained cells was performed on an automated InCell Analyser 2000 (GE Healthcare®) and high-content analysis on the InCell Investigator 2.7.3 software used to quantify number of DAPI positive cells per well. […] Survival was measured as cell counts relative to DMSO treated quiescent or senescent cells.
In a first experiment, HCT116 colon cancer cells were treated with doxorubicin (to induce senescence), or DMSO (as a control). […] 7 days after adding the drugs with replenishment after 3 days, cells were fixed, imaged and cells numbers were quantified using high throughput microscopy. […]
In a second experiment, HCT116 were treated with doxorubicin, etoposide or cisplatin (to induce senescence) or DMSO (as a control). 7 days after treatment, BrdU incorporation (to assess cell division), SA-β-Galactosidase activity and p21^CIP1 expression (as markers of senescence) were analysed. […]

## Cc1c(CCOc2cc(Cl)ccc2-c2ccc3ncc(CCN)n3c2)c(C(=O)N(C)C)nn1C [Compound 3, 4-(2-{2-[3-(2-aminoethyl)imidazo[1,2-a]pyridin-6-yl]-5-chlorophenoxy}ethyl)-N,N,1,5-tetramethyl-1H-pyrazole-3-carboxamide]
[1]; FIG. 20A
  ALT in blood: lower level
[1]; FIG. 20B
  Amylase in blood: lower level
[1]; FIG. 20C
  Glucose in blood: lower level
[2]
  Number of senescent preneoplastic hepatocytes: reduces the number senescent preneoplastic hepatocytes
[3]
  Survival, senescent versus control cells: preferentially kill cancer cells that undergo senescence after being treated with doxorubicin, etoposide or cisplatin
